Experimental data: patent publication US12065416B2, “cGAS antagonist compounds” (IMMUNESENSOR THERAPEUTICS, INC., priority 2016, dated 2024)
Each block holds one compound with its values, some of them ahead of it.

Assays:
[1] = biological target: T1, recombinant cGAS (aa147-522) (Homo sapiens, UniProt Q8N884); assay: In vitro assay for inhibition of cGAS activity (ATP consumption, Kinase Glo); format: biochemical; settings: 37° C. 20 minutes, read-out: Activity (Inhibition of cGAS enzyme activity in vitro, IC50)
T1 construct: recombinant cGAS (aa147-522); His6-SUMO (N, cleaved yes); made in house; host or cells: E. coli BL21/pLys
Summary of the method: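 Human cGAS (aa147-522) at 1.5 ng/μL incubated with serially diluted compound at 37° C for 20 min; remaining ATP read by Kinase Glo luminescence. IC50 from percent ATP consumption plotted against log compound concentration.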

[2] = tested on: cGAS activity in THP1 cells; assay: Cellular assay: ISRE-Gaussia luciferase reporter THP1 cells transfected with ISD (Interferon Stimulatory DNA); format: cell-based; settings: Homo sapiens, THP-1; ISRE-Gaussia luciferase reporter THP1 cells transfected with 2 μg/mL ISD, 16 hours; read-out: THP1-ISD (Inhibition of cGAS activity in THP1 cells, IC50)
Procedure: (§1) A reporter THP1 cell line harboring a gene encoding Gaussia Luciferase under the control of 5 tandem repeats of interferon-stimulated response elements (ISRE) was used to test inhibition of cGAS activity by synthetic compounds in human cells. These cells were plated on 96-well plates at 0.3×10^6/well and incubated with various concentrations of compounds or DMSO for 5 min, followed by transfection of 2 μg/mL of ISD (Interferon Stimulatory DNA, a 45 bp DNA oligo) or mock transfected using lipofectamine 2000 (Life Technology) method, according to manufacturer's instructions. 16 hours later, 15 μL of the media from each well is transferred to a new plate, 50 μL of solution containing 50 mM Hepes-NaOH, 50 mM NaCl, 10 mM EDTA, 1 μM of coeleanterazine was added to each well and luminescence was measured immediately. Fold increase in luminescence compared to mock transfection is plotted against concentrations of each compound, and IC50 is calculated using Graphpad. To evaluate the specificity of a compound, the same procedure was performed except that cells were transfected with 2 μg/mL poly(I:C) or infected with Sendai Virus (SeV) at 50 Unit/mL, which are known to activate the RIG-I-MAVS pathway. A specific inhibitory compound should inhibit interferon induction by DNA but have minimal effect on poly(I:C) or Sendai virus induced interferon reporter gene expression.

RIG-I-MAVS pathway = assay: Specificity assay: ISRE reporter THP1 cells infected with Sendai Virus (SeV); format: cell-based; settings: Homo sapiens, THP-1; ISRE-Gaussia luciferase reporter THP1 cells infected with Sendai Virus (SeV) at 50 Unit/mL
Procedure: as §1

T1 sequence (Q8N884 147-522): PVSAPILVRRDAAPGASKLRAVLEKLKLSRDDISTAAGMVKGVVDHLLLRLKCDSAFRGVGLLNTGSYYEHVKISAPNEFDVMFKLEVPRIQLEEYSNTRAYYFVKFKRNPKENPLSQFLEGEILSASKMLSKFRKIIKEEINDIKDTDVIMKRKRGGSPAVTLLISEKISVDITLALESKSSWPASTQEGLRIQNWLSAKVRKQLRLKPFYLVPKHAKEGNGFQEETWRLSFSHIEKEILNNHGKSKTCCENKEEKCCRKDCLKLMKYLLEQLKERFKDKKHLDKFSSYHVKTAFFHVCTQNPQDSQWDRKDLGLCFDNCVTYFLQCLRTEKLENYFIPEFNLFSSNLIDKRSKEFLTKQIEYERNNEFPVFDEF

SMILES: CN1C(=O)S/C(=C\c2cc(OCC3CCCCC3)c(O)cc2Br)C1=O [Ex86]
- IC50 [1]: 500 to 10000 nM
- IC50 [2]: 2500 to 10000 nM
- IC50 (RIG-I-MAVS pathway): 2500 to 10000 nM

SMILES: COc1cc(/C=C2\SC(=O)N(C)C2=O)c(Br)c(F)c1O [Ex63]
- IC50 [1]: ≤ 500 nM
- IC50 [2]: 2500 to 10000 nM
- IC50 (RIG-I-MAVS pathway): ≥ 10000 nM

SMILES: O=C1/C(=C/c2cc(OCc3cnc(NCc4ccncc4)nc3)c(O)cc2Br)Sc2ncccc21 [Ex200]
- IC50 [1]: ≤ 500 nM
- IC50 [2]: ≤ 2500 nM
- IC50 (RIG-I-MAVS pathway): ≥ 10000 nM

SMILES: CN1C(=O)S/C(=C\c2cc(OCc3cnc(NC4CC4)nc3)c(O)cc2Br)C1=O [Ex149]
- IC50 [1]: 500 to 10000 nM
- IC50 [2]: ≤ 2500 nM
- IC50 (RIG-I-MAVS pathway): ≥ 10000 nM

SMILES: Nc1ncc(COc2cc(/C=C3\Sc4ncccc4C3=O)c(Br)cc2O)cn1 [Ex194]
- IC50 [1]: ≤ 500 nM
- IC50 [2]: ≤ 2500 nM
- IC50 (RIG-I-MAVS pathway): ≥ 10000 nM

SMILES: COc1cc(/C=C2\SC(=O)N(C)C2=O)c(I)cc1O [Ex65]
- IC50 [1]: ≤ 500 nM
- IC50 [2]: 2500 to 10000 nM
- IC50 (RIG-I-MAVS pathway): ≥ 10000 nM

SMILES: CN1C(=O)S/C(=C\c2cc(OCc3cnc(N)nc3)c(O)c(F)c2Br)C1=O [Ex81]
- IC50 [1]: ≤ 500 nM
- IC50 [2]: ≤ 2500 nM
- IC50 (RIG-I-MAVS pathway): ≥ 10000 nM

SMILES: CN1C(=O)S/C(=C\c2cc(OCc3ccc(N)nc3)c(O)cc2Br)C1=O [Ex131]
- IC50 [1]: 500 to 10000 nM
- IC50 [2]: 2500 to 10000 nM
- IC50 (RIG-I-MAVS pathway): 2500 to 10000 nM

SMILES: CCC(Oc1cc(/C=C2\SC(=O)N(C)C2=O)c(Br)c(F)c1O)c1cnc(N)nc1 (stereo not shown) [ExB44]
- IC50 [1]: ≤ 500 nM
- IC50 [2]: 2500 to 10000 nM
- IC50 (RIG-I-MAVS pathway): ≥ 10000 nM

SMILES: [2H]C([2H])(Oc1cc(/C=C2\SC(=O)N(C)C2=O)c(Br)cc1O)c1cnc(N)nc1 [ExB35]
- IC50 [1]: ≤ 500 nM
- IC50 [2]: ≤ 2500 nM
- IC50 (RIG-I-MAVS pathway): ≥ 10000 nM

SMILES: CN1C(=O)S/C(=C\c2cc3c(-c4cnc(N)nc4)c[nH]c3c(F)c2Br)C1=O [ExB40]
- IC50 [1]: ≤ 500 nM
- IC50 [2]: 2500 to 10000 nM
- IC50 (RIG-I-MAVS pathway): ≥ 10000 nM

SMILES: CC(Oc1cc(/C=C2\Sc3ncccc3C2=O)c(Br)cc1O)c1cnc(N)nc1 (stereo not shown) [Ex122]
- IC50 [1]: ≤ 500 nM
- IC50 [2]: ≤ 2500 nM
- IC50 (RIG-I-MAVS pathway): ≥ 10000 nM

SMILES: Cc1ncc(COc2cc(/C=C3\Sc4ncccc4C3=O)c(Br)c(F)c2O)cn1 [ExA4]
- IC50 [1]: ≤ 500 nM
- IC50 [2]: ≤ 2500 nM
- IC50 (RIG-I-MAVS pathway): ≥ 10000 nM

SMILES: CC(C)n1ccc(COc2cc(/C=C3\SC(=O)N(C)C3=O)c(Br)cc2O)cc1=O [Ex135]
- IC50 [1]: 500 to 10000 nM
- IC50 [2]: 2500 to 10000 nM
- IC50 (RIG-I-MAVS pathway): ≥ 10000 nM

- IC50 [1]: ≤ 500 nM
- IC50 [2]: 2500 to 10000 nM
- IC50 (RIG-I-MAVS pathway): 2500 to 10000 nM
SMILES: CC(Oc1cc(/C=C2\SC(=O)N(C)C2=O)c(Br)c(F)c1O)c1cnc(Cl)nc1 (stereo not shown) [ExA6]

SMILES: Cc1nc(N)ncc1COc1cc(/C=C2\SC(=O)N(C)C2=O)c(Br)c(F)c1O [Ex108]
- IC50 [1]: ≤ 500 nM
- IC50 [2]: ≤ 2500 nM
- IC50 (RIG-I-MAVS pathway): ≥ 10000 nM

SMILES: O=C1/C(=C/c2cc(OCc3cnc(NCc4ccccn4)nc3)c(O)c(F)c2Br)Sc2ncccc21 [ExA2]
- IC50 [1]: ≤ 500 nM
- IC50 [2]: ≥ 10000 nM
- IC50 (RIG-I-MAVS pathway): ≥ 10000 nM

SMILES: O=C1/C(=C/c2cc(OCc3cnc(NCCO)nc3)c(O)cc2Br)Sc2ncccc21 [Ex196]
- IC50 [1]: ≤ 500 nM
- IC50 [2]: ≤ 2500 nM
- IC50 (RIG-I-MAVS pathway): ≥ 10000 nM

SMILES: CN1C(=O)S/C(=C\c2cc(O/C=C/c3cnc(N)nc3)c(O)c(F)c2Br)C1=O [ExB2]
- IC50 [1]: ≤ 500 nM
- IC50 [2]: ≤ 2500 nM
- IC50 (RIG-I-MAVS pathway): ≥ 10000 nM

SMILES: CN1C(=O)S/C(=C\c2cc3c(Cc4cnc(N)nc4)c[nH]c3c(F)c2Br)C1=O [ExB43]
- IC50 [1]: ≤ 500 nM
- IC50 [2]: ≥ 10000 nM
- IC50 (RIG-I-MAVS pathway): ≥ 10000 nM

SMILES: CN1C(=O)S/C(=C\c2cc(OCc3cnc(N4CCNCC4)nc3)c(O)cc2Br)C1=O [Ex165]
- IC50 [1]: ≤ 500 nM
- IC50 [2]: 2500 to 10000 nM
- IC50 (RIG-I-MAVS pathway): ≥ 10000 nM

SMILES: CN1C(=O)S/C(=C\c2cc(OCc3cnc(N)nc3C3CC3)c(O)cc2Br)C1=O [Ex171]
- IC50 [1]: ≤ 500 nM
- IC50 [2]: 2500 to 10000 nM
- IC50 (RIG-I-MAVS pathway): ≥ 10000 nM

- IC50 [1]: ≤ 500 nM
- IC50 [2]: 2500 to 10000 nM
SMILES: CC(Oc1cc(/C=C2\Sc3ncc(F)cc3C2=O)c(Br)c(F)c1O)c1cnc(N)nc1 (stereo not shown) [ExA13]

- IC50 [1]: 500 to 10000 nM
- IC50 [2]: ≤ 2500 nM
SMILES: CN1C(=O)S/C(=C\c2cc(OCc3ccncc3)c(O)cc2Br)C1=O [Ex53]

- IC50 [1]: 500 to 10000 nM
- IC50 [2]: 2500 to 10000 nM
SMILES: CN1C(=O)S/C(=C\c2cc(OCc3cnc(Cl)nc3)c(O)c(F)c2Br)C1=O [Ex107]

- IC50 [1]: ≤ 500 nM
- IC50 [2]: 2500 to 10000 nM
SMILES: CC(Oc1cc(/C=C2\Sc3ncccc3C2=O)c(Br)c(F)c1O)c1cnc(N)nc1 (stereo not shown) [Ex124]

- IC50 [1]: ≥ 10000 nM
- IC50 [2]: 2500 to 10000 nM
SMILES: CN1C(=O)S/C(=C\c2cc(O)c(O)cc2Br)C1=O [Ex11]
